In PubChem BioAssay AID1996:
In brackets after ≈: the same amount, converted by molar mass.

Conditions: buffer; pH 7.4; 200.0 µM

| SMILES | solubility kinetic [µg/mL] |
| --- | --- |
| CC(NC(=O)c1cc(F)c(F)cc1Cl)C1CC2CCC1C2 (centres undefined) | 5.6 (≈ 17.8 µM) |
| Br.CCCCCCCCn1ccc(=N)cc1 | > 43.1 |
| CCOC(=O)c1c(C)oc2cc(Cl)c(O)c(CN(C)C)c12 | 43.9 (≈ 141 µM) |
| O=C(COC(=O)c1ccc(O)cc1)NC1CCCC1 | > 39.5 |
| COc1ccc(CCNC(=O)C(=O)N2CCCC2)cc1OC | 39.7 (≈ 130 µM) |
| Cc1ccc(C)c(C(=O)CN2C(=O)c3ccccc3C2=O)c1 | 0.9 (≈ 3.07 µM) |
| Cc1ccsc1C(=O)N1CCc2ccccc2C1 | > 38.6 |
| c1ccc(CC(NCc2ccco2)c2ccccc2)cc1 (centres undefined) | 13.6 (≈ 49 µM) |
| O=C(NN1CCOCC1)c1ccc(F)cc1 | > 33.6 |
| COc1ccc(/C=C/C(=O)Nc2cccnc2Cl)cc1 | 8.9 (≈ 30.8 µM) |
| Cc1cccc(N=C2NC(=O)/C(=C/c3cccn3C)S2)c1 | 1 (≈ 3.36 µM) |
| CC1=C(C)/C(=N\OS(=O)(=O)c2ccc(C)cc2)C=CC1=O | 3.5 (≈ 11.5 µM) |
| COc1ccc(OC)c(S(=O)(=O)NCCCn2ccnc2)c1 | 41.6 (≈ 128 µM) |
| CC(C)(C)C(=O)N1c2ccccc2CCc2ccccc21 | 28.7 (≈ 103 µM) |
| CC1(C)Cc2c(C#N)c(SCC(=O)O)nc(N3CCOCC3)c2CO1 | 52.7 (≈ 145 µM) |
| COc1ccc(-n2c(O)c(C(C)=NCC3CCCO3)c(=O)[nH]c2=O)cc1 (centres undefined) | 51.5 (≈ 143 µM) |
| CC(C)C(NCC(=O)Nc1ccccc1C(=O)NC1CC1)c1ccccc1 (centres undefined) | > 54.8 |
| O=C(OCC(=O)N1CCc2ccccc2C1)c1c(F)cccc1Cl | 31.8 (≈ 91.4 µM) |
| CC(C)N(Cc1ccccc1)C(=O)CCc1ccccc1 | 36.8 (≈ 131 µM) |
| O=C(Oc1c(-c2ccccc2)c(=O)n2c3c(cccc13)CC2)c1ccc(F)cc1 | < 0.8 |

| SMILES | solubility kinetic [µg/mL] |
| --- | --- |
| COc1ccccc1NS(=O)(=O)c1ccc(OC)c([N+](=O)[O-])c1 | > 50.8 |
| CCOC(=O)C1(CCOC)CCN(Cc2ccncc2)CC1 | > 46 |
| O=C(O)C(Cc1c[nH]c2ccccc12)N1C(=O)C2C3c4ccccc4C(c4ccccc43)[C@@H]2C1=O (some centres undefined) | 37.1 (≈ 80.2 µM) |
| Cc1cc(C)n2nc(SC(C)C(=O)N(C)C3CCCCC3)nc2n1 (centres undefined) | > 52.1 |
| Cc1cc(NC(=O)c2cc3cccc([N+](=O)[O-])c3[nH]2)ccc1F | 0.7 (≈ 2.23 µM) |
| O=S1(=O)CCN(Cc2cccc(C(F)(F)F)c2)CC1 | 41.9 (≈ 143 µM) |
| CCOC(=O)Cn1ccc(NC(=O)COc2ccc(F)cc2)n1 | > 48.2 |
| CC(=O)c1cccc(NC(=O)C2CC(=O)N(C3CCCC3)C2)c1 (centres undefined) | > 47.2 |
| CC(=O)c1ccc(Oc2nc3c(c(=O)n(C)c(=O)n3C)n2C)cc1 | 9.1 (≈ 27.7 µM) |
| Cn1c(CNC(=O)C2CCCCC2)cc2ccccc21 | 1.7 (≈ 6.29 µM) |
| Fc1cccc(/C=C2\CCCC3=C2NC(=S)NC3c2cccc(F)c2)c1 (centres undefined) | 7 (≈ 19 µM) |
| Nc1nc(-c2ccccc2)cc(-c2ccccc2)n1 | 2.6 (≈ 10.5 µM) |
| COc1ccc2ccn(S(=O)(=O)c3ccccc3)c2c1 | 2.9 (≈ 10.1 µM) |
| O=C(CSCc1ccccc1F)NCc1ccccc1 | > 43.4 |
| O=C(CSCc1cccc(F)c1)NCc1ccccc1 | 35.2 (≈ 122 µM) |
| COC(=O)c1c(C)[nH]c(C(=O)C(C)OC(=O)C2CC2C)c1C (centres undefined) | > 46.1 |
| O=C1C=C(N2CCCCCC2)C2(CCCCC2)O1 | 37.1 (≈ 149 µM) |
| Cc1ccc(NC(=O)COc2ccc(N(C)C(=O)C(C)(C)C)cc2)cc1S(=O)(=O)N1CCCCC1 | 6.7 (≈ 13.4 µM) |
| CC(=O)c1cc(C)ccc1OC(=O)c1ccncc1 | 35.8 (≈ 140 µM) |
| CCCC(C)NC(=O)CN1C(=O)NC2(CCc3ccccc32)C1=O (centres undefined) | > 49.4 |

| SMILES | solubility kinetic [µg/mL] |
| --- | --- |
| O=C(NC(=S)N1CCN(C/C=C/c2ccccc2)CC1)c1cccnc1 | > 55 |
| O=C(CSCc1ccccc1)Nc1ccc(F)cc1F | 41 (≈ 140 µM) |
| O=C(CSc1ncnc2sc3c(c12)CCCC3)NC1CCS(=O)(=O)C1 (centres undefined) | 18.6 (≈ 46.8 µM) |
| CC1Cc2ccccc2N1C(=O)CN1CCCCC1.Cl (centres undefined) | 39.3 |
| O=C(COC(=O)c1ccc(F)c(S(=O)(=O)N2CCOCC2)c1)NCCc1ccc(F)cc1 | 17.5 (≈ 37.4 µM) |
| C(=Nc1cccc2c(N=Cc3ccco3)cccc12)c1ccco1 | 46.7 (≈ 149 µM) |
| CC(=O)NC(c1ccccc1)c1cc(Cl)c2cccnc2c1O (centres undefined) | 0.4 (≈ 1.22 µM) |
| O=[N+]([O-])c1cnc2ccc3ccccc3c2c1 | 3.1 (≈ 13.8 µM) |
| CN1c2ccccc2C(=O)/C(=C\Nc2ccc(F)cc2F)S1(=O)=O | 1 (≈ 2.85 µM) |
| O=C(CN1CCCCC1)NC(=O)NC1CCCCC1 | > 40.1 |
| O=C(NC1CCSc2ccccc21)c1ccccc1Br (centres undefined) | 8.6 (≈ 24.7 µM) |
| CC12COC3(C(=O)Nc4ccccc4)CC1CCC32C (centres undefined) | > 40.7 |
| CC(c1ccccc1)N1C(=O)/C(=C/c2ccncc2)SC1=S (centres undefined) | 1.3 (≈ 3.98 µM) |
| CC1CCN(Cc2cc(=O)oc3cc(O)c(Cl)cc23)CC1 | > 46.2 |
| CC(=O)N(c1ccccc1C)S(=O)(=O)c1ccc(Cl)cc1 | 34.3 (≈ 106 µM) |
| C=C(c1ccccc1O)n1ccnc1 | > 27.9 |
| O=C(c1cc2ccccc2o1)N1CCN(c2ncccn2)CC1 | > 46.3 |
| COc1cccc(-n2c(SCc3ccccn3)nc3c(c2=O)SCC3)c1 | 54.1 (≈ 141 µM) |
| CCCCN(C)S(=O)(=O)c1cc2c3c(c1)CCC(=O)N3CCC2 | 48.6 (≈ 144 µM) |
